Measurements as given in ChEMBL document CHEMBL1201862, “PubChem BioAssay data set” (2004).
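Five concentrations, 48 hours, 96-well plates. GI50: concentration for 50% inhibition of growth.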 Calls of active or inactive are those of the source. Cut-off read from the data, not from the text of the source: active = GI50 up to about 1.1 µM and inactive = higher.

What was measured:
Assay in all cases: NCI anticancer screen, dose series, 48 h
[1] = tested on: SK-OV-3
[2] = tested on: UO-31
[3] = tested on: MDA-MB-231
[4] = tested on: COLO 205
[5] = tested on: LOX IMVI
[6] = tested on: TK-10
[7] = tested on: ACHN
[8] = tested on: SK-MEL-2
[9] = tested on: NCI-H522
[10] = tested on: SR
[11] = tested on: CCRF-CEM
[12] = tested on: DU-145
[13] = tested on: U-251
[14] = tested on: M14
[15] = tested on: HOP-62
[16] = tested on: UACC-62
[17] = tested on: NCI/ADR-RES
[18] = tested on: UACC-257
[19] = tested on: 786-0
[20] = tested on: HL-60

Measured: GI50

COC(=O)c1ccc(C)cc1CC1Cc2ccc(C)cc2C1=O (stereo not given)
inactive: [1] 9.08 µM | [2] 19.9 µM | [3] 14.9 µM | [4] 4.54 µM | [5] 5.25 µM | [6] 13 µM | [7] 22 µM | [8] 11.9 µM | [9] 1.47 µM | [10] 3.05 µM | [11] 9.91 µM | [12] 22.9 µM | [13] 4.07 µM | [14] 5.7 µM | [15] 22 µM | [16] 9.53 µM | [17] 2.59 µM | [18] 13.2 µM | [19] 13.7 µM | [20] 3.47 µM

CCOc1c2c(cc3c1C(=O)c1c(OC)cccc1C3=O)C=C(OC)CC2
inactive: [1] > 25 µM | [2] 10.9 µM | [3] > 25 µM | [4] 21.6 µM | [5] 16.8 µM | [6] > 25 µM | [7] > 25 µM | [8] > 25 µM | [9] 10.4 µM | [10] 7.45 µM | [11] 7.8 µM | [12] > 25 µM | [13] 22.3 µM | [14] 18.8 µM | [15] > 25 µM | [16] 10.3 µM | [17] 23.2 µM | [18] > 25 µM | [19] > 25 µM | [20] 5.62 µM

CN1C2CCC1CC(=CCOC(c1ccc(F)cc1)c1ccc(F)cc1)C2
inactive: [1] 17 µM | [2] 9.91 µM | [3] 17.9 µM | [4] 11 µM | [5] 16.8 µM | [6] 14.9 µM | [7] 17.4 µM | [8] 19.1 µM | [9] 11.6 µM | [10] 15.8 µM | [11] 37 µM | [12] 16.9 µM | [13] 17.2 µM | [14] 16.4 µM | [15] 17.7 µM | [16] 15.1 µM | [17] 23.3 µM | [18] 16.1 µM | [19] 14 µM | [20] 13.6 µM

C[C@@H]1C(=O)CC2(O)[C@@]13C[C@@H](OC(=O)[C@@H]3O)[C@@H](C)[C@@]21COC1=O (stereo not given in full)
inactive: [1] > 100 µM | [2] > 100 µM | [3] > 100 µM | [4] > 100 µM | [5] > 100 µM | [6] > 100 µM | [7] > 100 µM | [8] > 100 µM | [9] > 100 µM | [10] > 100 µM | [11] > 100 µM | [12] > 100 µM | [13] > 100 µM | [14] > 100 µM | [15] > 100 µM | [16] > 100 µM | [17] > 100 µM | [18] > 100 µM | [19] > 100 µM | [20] > 100 µM
